Experimental data published in PubChem BioAssay (NCI).
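Dose response: 5 concentrations. Exposure: 48 h. Format: 96-well plates. Endpoint: linear interpolation; highest concentration if not reached. GI50 marks 50% less growth. Definition used: TGI = concentration required for complete inhibition of growth.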

Legend:
Test in all cases: NCI tumour cell line growth inhibition, 48 h
NCI-H23 lung = system: NCI-H23 lung
NCI-H460 lung = system: NCI-H460 lung
NCI-H522 lung = system: NCI-H522 lung
NCI/ADR-RES ovarian = system: NCI/ADR-RES ovarian
OVCAR-3 ovarian = system: OVCAR-3 ovarian
OVCAR-4 ovarian = system: OVCAR-4 ovarian
OVCAR-5 ovarian = system: OVCAR-5 ovarian
OVCAR-8 ovarian = system: OVCAR-8 ovarian
PC-3 prostate = system: PC-3 prostate
RPMI-8226 leukemia = system: RPMI-8226 leukemia
RXF 393 renal = system: RXF 393 renal
SF-268 CNS = system: SF-268 CNS
SF-295 CNS = system: SF-295 CNS
SF-539 CNS = system: SF-539 CNS
SK-MEL-2 melanoma = system: SK-MEL-2 melanoma
SK-MEL-28 melanoma = system: SK-MEL-28 melanoma
SK-MEL-5 melanoma = system: SK-MEL-5 melanoma
SK-OV-3 ovarian = system: SK-OV-3 ovarian
SN12C renal = system: SN12C renal
SNB-19 CNS = system: SNB-19 CNS
SNB-75 CNS = system: SNB-75 CNS
SR leukemia = system: SR leukemia
SW-620 colon = system: SW-620 colon
T-47D breast = system: T-47D breast
TK-10 renal = system: TK-10 renal
U251 CNS = system: U251 CNS
UACC-257 melanoma = system: UACC-257 melanoma
UACC-62 melanoma = system: UACC-62 melanoma
UO-31 renal = system: UO-31 renal

Compound: CC1=C2C(=C[C@@](C)(COC(=O)c3ccc(S(=O)(=O)F)cc3)[C@@H]2O)C(=O)[C@](C)(O)C12CC2
- TGI (NCI-H23 lung): 3620 nM
- GI50 (NCI-H460 lung): 614 nM
- TGI (NCI-H460 lung): 1870 nM
- GI50 (NCI-H522 lung): 745 nM
- TGI (NCI-H522 lung): 2530 nM
- GI50 (NCI/ADR-RES ovarian): 815 nM
- TGI (NCI/ADR-RES ovarian): 3970 nM
- GI50 (OVCAR-3 ovarian): 906 nM
- TGI (OVCAR-3 ovarian): 3800 nM
- GI50 (OVCAR-4 ovarian): 1690 nM
- TGI (OVCAR-4 ovarian): 4390 nM
- GI50 (OVCAR-5 ovarian): 982 nM
- TGI (OVCAR-5 ovarian): 5120 nM
- GI50 (OVCAR-8 ovarian): 903 nM
- TGI (OVCAR-8 ovarian): 3620 nM
- GI50 (PC-3 prostate): 1710 nM
- TGI (PC-3 prostate): > 29100 nM
- GI50 (RPMI-8226 leukemia): 24500 nM
- TGI (RPMI-8226 leukemia): > 74200 nM
- GI50 (RXF 393 renal): 522 nM
- TGI (RXF 393 renal): 1230 nM
- GI50 (SF-268 CNS): 1060 nM
- TGI (SF-268 CNS): 6130 nM
- GI50 (SF-295 CNS): 2140 nM
- TGI (SF-295 CNS): 8200 nM
- GI50 (SF-539 CNS): 1860 nM
- TGI (SF-539 CNS): 3710 nM
- GI50 (SK-MEL-2 melanoma): 613 nM
- TGI (SK-MEL-2 melanoma): 1290 nM
- GI50 (SK-MEL-28 melanoma): 556 nM
- TGI (SK-MEL-28 melanoma): 2050 nM
- GI50 (SK-MEL-5 melanoma): 1490 nM
- TGI (SK-MEL-5 melanoma): 3510 nM
- GI50 (SK-OV-3 ovarian): 2520 nM
- TGI (SK-OV-3 ovarian): 7890 nM
- GI50 (SN12C renal): 1200 nM
- TGI (SN12C renal): 5460 nM
- GI50 (SNB-19 CNS): 1820 nM
- TGI (SNB-19 CNS): 10400 nM
- GI50 (SNB-75 CNS): 1490 nM
- TGI (SNB-75 CNS): 3070 nM
- GI50 (SR leukemia): 1360 nM
- TGI (SR leukemia): > 22600 nM
- GI50 (SW-620 colon): 1970 nM
- TGI (SW-620 colon): 8790 nM
- GI50 (T-47D breast): 2060 nM
- TGI (T-47D breast): 18800 nM
- GI50 (TK-10 renal): 2510 nM
- TGI (TK-10 renal): 6470 nM
- GI50 (U251 CNS): 1400 nM
- TGI (U251 CNS): > 25100 nM
- GI50 (UACC-257 melanoma): 2050 nM
- TGI (UACC-257 melanoma): 4780 nM
- GI50 (UACC-62 melanoma): 894 nM
- TGI (UACC-62 melanoma): 2560 nM
- GI50 (UO-31 renal): 1610 nM
- TGI (UO-31 renal): 3090 nM
